# Experimental data taken from patent US5888757A, “Cell wall assay” (Millennium Pharmaceuticals, Inc., priority 1996, dated 1999).
# Experiments:
# [1] = target: T1, CaCHS1p (chitin synthase of Candida albicans) (Candida albicans, UniProt P23316); assay: Chitin synthase inhibition assay (WGA capture / WGA-HRP detection of chitin synthesized in vitro); assay type: biochemical; settings: inhibitor added over a range of concentrations, to a maximal concentration of 1 mM; FIG. 3
# Source text: Preparation of CaCHS1p Membranes: In this example, chitin synthase was obtained from the S. cerevisiae strain 68-11-2C, transformed with the plasmid pJA16 (Bulawa et al., 1990, Proc. Natl. Acad. Sci. USA, 87:7424-7428 and Au-Young et al., 1990, Mol. Micro. 4:197-207). In strain 68-11-2C, the S. cerevisiae genes encoding chitin synthases 1 and 2 (CHS1 and CHS2, respectively) were genetically disrupted, rendering the strain deficient in production of these enzymes. The plasmid pJA16 encodes the chitin synthase gene of Candida albicans, and provides the only significant source of chitin in this assay.
# Generally, the strain 68-1-2C/pJA16 is maintained on a supplemented SD medium. In this example, the cells were grown in 1 liter of SD medium for 48 hrs at 30° C. To provide good aeration, the culture was divided into two 500 ml cultures and grown in 2-liter flasks until the culture reached the stationary phase (i.e., until the OD600 of the culture reached 1.2-1.4). […] The cell walls then were broken by vortexing aliquots (2 ml) of the resuspended cells for 2 minutes with 3 ml of glass beads, according to conventional protocols. The cell extracts then were centrifuged for 5 minutes at 1,000×g, and the resulting supernatant was stored at -80° C. until it was used in the chitin synthase reactions described below. Frozen CaCHS1p membranes can be thawed at 30° C. […]
# [2] = target: T1, CaCHS1p (chitin synthase of Candida albicans); settings: known relative potency, Nikkomycin Z versus Asperfuran; cited from earlier work
# T1 sequence (P23316 whole entry): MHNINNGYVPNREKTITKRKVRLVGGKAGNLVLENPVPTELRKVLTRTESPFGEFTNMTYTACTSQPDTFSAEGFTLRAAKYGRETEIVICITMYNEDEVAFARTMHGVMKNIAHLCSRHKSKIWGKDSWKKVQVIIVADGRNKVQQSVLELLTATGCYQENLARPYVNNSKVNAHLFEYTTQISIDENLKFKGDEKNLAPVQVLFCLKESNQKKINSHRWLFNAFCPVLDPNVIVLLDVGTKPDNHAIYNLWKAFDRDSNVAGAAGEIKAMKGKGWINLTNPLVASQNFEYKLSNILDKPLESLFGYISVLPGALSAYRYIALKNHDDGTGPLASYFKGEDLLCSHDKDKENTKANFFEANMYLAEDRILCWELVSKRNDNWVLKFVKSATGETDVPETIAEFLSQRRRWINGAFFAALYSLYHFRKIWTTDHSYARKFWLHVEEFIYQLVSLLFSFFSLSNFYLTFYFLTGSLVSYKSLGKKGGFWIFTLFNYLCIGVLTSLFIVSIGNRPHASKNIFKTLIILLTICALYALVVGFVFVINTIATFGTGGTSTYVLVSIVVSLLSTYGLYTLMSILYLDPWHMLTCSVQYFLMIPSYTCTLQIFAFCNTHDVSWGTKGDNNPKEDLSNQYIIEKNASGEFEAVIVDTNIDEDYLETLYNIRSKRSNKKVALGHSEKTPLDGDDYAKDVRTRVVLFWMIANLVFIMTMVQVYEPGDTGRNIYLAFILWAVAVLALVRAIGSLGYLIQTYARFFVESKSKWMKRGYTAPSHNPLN
SMILES,inhibition of chitin synthase [1],relative potency as inhibitor of CaCHS1p activity [2]
C/C=C/C=C/[C@H]1Cc2cc(O)cc(O)c2O1 [Asperfuran],an increase in the concentration of either of these chitin synthase inhibitors causes an increase in the inhibition of chitin synthase,
C[C@@H]([C@H](N)C(=O)N[C@H](C(=O)O)[C@H]1O[C@@H](n2ccc(=O)[nH]c2=O)[C@H](O)[C@@H]1O)[C@H](O)c1ccc(O)cn1 [Nikkomycin Z],an increase in the concentration of either of these chitin synthase inhibitors causes an increase in the inhibition of chitin synthase,more potent inhibitor of CaCHS1p activity than is Asperfuran
